This is an account of results in PMC4287680, “Targeting GLP-1 receptors for repeated magnetic resonance imaging differentiates graded losses of pancreatic beta cells in mice” (Diabetologia, 2014).

The assay deals with pancreas of RIP-DTr mice. Nature of the assay: Total pancreas insulin content (acid-ethanol extraction, ELISA) after DT. Format: in vivo. The text has this:
Rat insulin promoter-diphtheria toxin receptor (RIP-DTr) mice were generated as reported. Briefly, the transgene containing an insulin promoter and the diphtheria toxin (DT) receptor coding sequence (RIP-DTr) was targeted to the Hprt locus of the X chromosome. Thus, in this model, DT administration leads to a parallel loss of insulin content and beta cells, which is partially due to the random X inactivation (on average 50%) in hemizygous female mice and nearly complete ablation in male mice.
To evaluate the total insulin content of the pancreas, whole glands were carefully dissected and extracted in acid-ethanol for 24 h, as reported. Pancreas insulin content was evaluated using a rodent insulin ELISA kit (Mercodia, Uppsala, Sweden) according to the manufacturer’s instructions.
Three-to-four-months-old male and female mice of the RIP-DTr strain [33, 36] were tested before and after DT administration. Mice were initially imaged before the injection of a probe to obtain a baseline T2 value (ESM Fig. 2). […] One week after this first imaging session, the same mice were given three intraperitoneal injections of 125 ng DT (injections administered on days 7, 9 and 11; ESM Fig. 2) and were monitored for non-fasting blood glucose by measuring tail-vein blood samples with a glucose meter. […]
For orientation: ELISA stands for enzyme-linked immunosorbent assay.

Regarding Diphtheria toxin [DT], the “Pancreas insulin content after DT, female mice (average)” value (female RIP-DTr mice, up to 3 months after DT administration (3 × 125 ng i.p.)) is reported as 63 % of the control levels. Further, under “male RIP-DTr mice after DT administration (3 × 125 ng i.p.)”, the “Pancreas insulin content after DT, male mice” value is 0.4 % of control levels.
